# PubChem BioAssay (NCI)
#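 Tested at 5 concentrations; 48 h exposure; 96-well plates; endpoints linearly interpolated, else capped at highest concentration. At the GI50, growth is halved. TGI: total growth inhibition.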
# Assays:
# Assay in all cases: inhibition of tumour cell growth, NCI panel, 48 h
# 786-0 renal = tested on: 786-0 renal
# A498 renal = tested on: A498 renal
# A549 NSCLC = tested on: A549 NSCLC
# ACHN renal = tested on: ACHN renal
# BT-549 breast = tested on: BT-549 breast
# CAKI-1 renal = tested on: CAKI-1 renal
# CCRF-CEM leukemia = tested on: CCRF-CEM leukemia
# COLO 205 colon = tested on: COLO 205 colon
# DU-145 prostate = tested on: DU-145 prostate
# EKVX NSCLC = tested on: EKVX NSCLC
# HCC-2998 colon = tested on: HCC-2998 colon
# HCT-116 colon = tested on: HCT-116 colon
# HCT-15 colon = tested on: HCT-15 colon
# HL-60(TB) leukemia = tested on: HL-60(TB) leukemia
# HOP-62 NSCLC = tested on: HOP-62 NSCLC
# HOP-92 NSCLC = tested on: HOP-92 NSCLC
# HS 578T breast = tested on: HS 578T breast
# HT29 colon = tested on: HT29 colon
# IGROV1 ovarian = tested on: IGROV1 ovarian
# K-562 leukemia = tested on: K-562 leukemia
# KM12 colon = tested on: KM12 colon
# LOX IMVI melanoma = tested on: LOX IMVI melanoma
# M14 melanoma = tested on: M14 melanoma
# MALME-3M melanoma = tested on: MALME-3M melanoma
# MCF7 breast = tested on: MCF7 breast
# MDA-MB-231 breast = tested on: MDA-MB-231 breast
# MDA-MB-435 = tested on: MDA-MB-435
# MDA-MB-468 breast = tested on: MDA-MB-468 breast
# MOLT-4 leukemia = tested on: MOLT-4 leukemia
# NCI-H226 lung = tested on: NCI-H226 lung
# NCI-H23 lung = tested on: NCI-H23 lung
# NCI-H460 lung = tested on: NCI-H460 lung
# NCI-H522 lung = tested on: NCI-H522 lung
# NCI/ADR-RES ovarian = tested on: NCI/ADR-RES ovarian
# OVCAR-3 ovarian = tested on: OVCAR-3 ovarian
# OVCAR-4 ovarian = tested on: OVCAR-4 ovarian
# OVCAR-5 ovarian = tested on: OVCAR-5 ovarian
# OVCAR-8 ovarian = tested on: OVCAR-8 ovarian
# PC-3 prostate = tested on: PC-3 prostate
# RPMI-8226 leukemia = tested on: RPMI-8226 leukemia
# RXF 393 renal = tested on: RXF 393 renal
# SF-268 CNS = tested on: SF-268 CNS
# SF-295 CNS = tested on: SF-295 CNS
# SF-539 CNS = tested on: SF-539 CNS
# SK-MEL-2 melanoma = tested on: SK-MEL-2 melanoma
# SK-MEL-28 melanoma = tested on: SK-MEL-28 melanoma
# SK-MEL-5 melanoma = tested on: SK-MEL-5 melanoma
# SK-OV-3 ovarian = tested on: SK-OV-3 ovarian
# SN12C renal = tested on: SN12C renal
# SNB-19 CNS = tested on: SNB-19 CNS
# SNB-75 CNS = tested on: SNB-75 CNS
# SR leukemia = tested on: SR leukemia
# SW-620 colon = tested on: SW-620 colon
# T-47D breast = tested on: T-47D breast
# TK-10 renal = tested on: TK-10 renal
# U251 CNS = tested on: U251 CNS
# UACC-257 melanoma = tested on: UACC-257 melanoma
# UACC-62 melanoma = tested on: UACC-62 melanoma
# UO-31 renal = tested on: UO-31 renal
structure (smiles),measurement,setting,value
Fc1cccc(CNc2nc(SCCN3CCOCC3)nc3c2cnn3CC(Cl)c2ccc(Br)cc2)c1 (stereo not drawn),GI50,786-0 renal,5.7 µM
same,TGI,786-0 renal,> 100 µM
same,GI50,A498 renal,30.4 µM
same,TGI,A498 renal,> 100 µM
same,GI50,A549 NSCLC,4.88 µM
same,TGI,A549 NSCLC,> 100 µM
same,GI50,ACHN renal,5.83 µM
same,TGI,ACHN renal,> 100 µM
same,GI50,BT-549 breast,21.2 µM
same,TGI,BT-549 breast,57.4 µM
same,GI50,CAKI-1 renal,5.07 µM
same,TGI,CAKI-1 renal,> 100 µM
same,GI50,CCRF-CEM leukemia,5.41 µM
same,TGI,CCRF-CEM leukemia,> 100 µM
same,GI50,COLO 205 colon,4.31 µM
same,TGI,COLO 205 colon,20.5 µM
same,GI50,DU-145 prostate,39 µM
same,TGI,DU-145 prostate,> 100 µM
same,GI50,EKVX NSCLC,8.05 µM
same,TGI,EKVX NSCLC,> 100 µM
same,GI50,HCC-2998 colon,3.46 µM
same,TGI,HCC-2998 colon,> 100 µM
same,GI50,HCT-116 colon,4.82 µM
same,TGI,HCT-116 colon,> 100 µM
same,GI50,HCT-15 colon,1.94 µM
same,TGI,HCT-15 colon,4.5 µM
same,GI50,HL-60(TB) leukemia,3.85 µM
same,TGI,HL-60(TB) leukemia,50.4 µM
same,GI50,HOP-62 NSCLC,25.8 µM
same,TGI,HOP-62 NSCLC,> 100 µM
same,GI50,HOP-92 NSCLC,13.4 µM
same,TGI,HOP-92 NSCLC,> 100 µM
same,GI50,HS 578T breast,8.83 µM
same,TGI,HS 578T breast,> 100 µM
same,GI50,HT29 colon,1.86 µM
same,TGI,HT29 colon,3.82 µM
same,GI50,IGROV1 ovarian,34.4 µM
same,TGI,IGROV1 ovarian,> 100 µM
same,GI50,K-562 leukemia,2.69 µM
same,TGI,K-562 leukemia,> 100 µM
same,GI50,KM12 colon,4.81 µM
same,TGI,KM12 colon,> 100 µM
same,GI50,LOX IMVI melanoma,2.9 µM
same,TGI,LOX IMVI melanoma,11.6 µM
same,GI50,M14 melanoma,7.96 µM
same,TGI,M14 melanoma,> 100 µM
same,GI50,MALME-3M melanoma,3.02 µM
same,TGI,MALME-3M melanoma,24.9 µM
same,GI50,MCF7 breast,4.61 µM
same,TGI,MCF7 breast,> 100 µM
same,GI50,MDA-MB-231 breast,4.25 µM
same,TGI,MDA-MB-231 breast,52.6 µM
same,GI50,MDA-MB-435,11.5 µM
same,TGI,MDA-MB-435,> 100 µM
same,GI50,MDA-MB-468 breast,2.62 µM
same,TGI,MDA-MB-468 breast,8.48 µM
same,GI50,MOLT-4 leukemia,2.58 µM
same,TGI,MOLT-4 leukemia,15.7 µM
same,GI50,NCI-H226 lung,13.2 µM
same,TGI,NCI-H226 lung,98.4 µM
same,GI50,NCI-H23 lung,17 µM
same,TGI,NCI-H23 lung,> 100 µM
same,GI50,NCI-H460 lung,5.04 µM
same,TGI,NCI-H460 lung,> 100 µM
same,GI50,NCI-H522 lung,8.22 µM
same,TGI,NCI-H522 lung,> 100 µM
same,GI50,NCI/ADR-RES ovarian,4.52 µM
same,TGI,NCI/ADR-RES ovarian,> 100 µM
same,GI50,OVCAR-3 ovarian,53.1 µM
same,TGI,OVCAR-3 ovarian,> 100 µM
same,GI50,OVCAR-4 ovarian,8.81 µM
same,TGI,OVCAR-4 ovarian,> 100 µM
same,GI50,OVCAR-5 ovarian,14.1 µM
same,TGI,OVCAR-5 ovarian,> 100 µM
same,GI50,OVCAR-8 ovarian,10.7 µM
same,TGI,OVCAR-8 ovarian,> 100 µM
same,GI50,PC-3 prostate,6.58 µM
same,TGI,PC-3 prostate,> 100 µM
same,GI50,RPMI-8226 leukemia,4.33 µM
same,TGI,RPMI-8226 leukemia,> 100 µM
same,GI50,RXF 393 renal,2.44 µM
same,TGI,RXF 393 renal,21.3 µM
same,GI50,SF-268 CNS,10 µM
same,TGI,SF-268 CNS,> 100 µM
same,GI50,SF-295 CNS,4.16 µM
same,TGI,SF-295 CNS,> 100 µM
same,GI50,SF-539 CNS,4.58 µM
same,TGI,SF-539 CNS,> 100 µM
same,GI50,SK-MEL-2 melanoma,11.9 µM
same,TGI,SK-MEL-2 melanoma,37.5 µM
same,GI50,SK-MEL-28 melanoma,8.51 µM
same,TGI,SK-MEL-28 melanoma,> 100 µM
same,GI50,SK-MEL-5 melanoma,7.54 µM
same,TGI,SK-MEL-5 melanoma,20.3 µM
same,GI50,SK-OV-3 ovarian,> 100 µM
same,TGI,SK-OV-3 ovarian,> 100 µM
same,GI50,SN12C renal,12 µM
same,TGI,SN12C renal,> 100 µM
same,GI50,SNB-19 CNS,16.2 µM
same,TGI,SNB-19 CNS,> 100 µM
same,GI50,SNB-75 CNS,6.5 µM
same,TGI,SNB-75 CNS,> 100 µM
same,GI50,SR leukemia,2.5 µM
same,TGI,SR leukemia,> 100 µM
same,GI50,SW-620 colon,2.89 µM
same,TGI,SW-620 colon,10.4 µM
same,GI50,T-47D breast,3.28 µM
same,TGI,T-47D breast,> 100 µM
same,GI50,TK-10 renal,43.8 µM
same,TGI,TK-10 renal,> 100 µM
same,GI50,U251 CNS,6.12 µM
same,TGI,U251 CNS,> 100 µM
same,GI50,UACC-257 melanoma,13.9 µM
same,TGI,UACC-257 melanoma,> 100 µM
same,GI50,UACC-62 melanoma,8.76 µM
same,TGI,UACC-62 melanoma,23.8 µM
same,GI50,UO-31 renal,5.11 µM
same,TGI,UO-31 renal,> 100 µM
